The values that follow come from US20100239646A1, “Sublingual methotrexate and methotrexate patches” (priority 2009, published 2010).

In one series the test system is aldehyde oxidase. The series can be described thus: Aldehyde oxidase mediated oxidation of methotrexate. An excerpt: (§1) In order to unravel the mechanism of methotrexate non-responsiveness M. G. Nair investigated the metabolism of methotrexate and its potential deactivation pathways. […] 3; 29-34 (1996)].
The aldehyde oxidase mediated oxidation of methotrexate vs. certain metabolically inert antifolates was investigated by M. Gopal Nair. [Med. Chem. Research. 9:176-185, 1999].

For series [1] the following is noted: cited from earlier work.
The conditions of series [2]: women; sublingual versus oral solid dosage unit; cited from earlier work.
For series [3] the following is noted: cited from earlier work. This is another data set of the same source.
The subject of series [4] is patients with rheumatoid arthritis. The series can be described thus: Conventional therapy of rheumatoid arthritis with methotrexate (Rheumatrex). Format: in vivo, human.
From the text: as §1

Series [5] in a line: Absorption of oral methotrexate in a group of arthritic patients (Example-1). The series is classed as in vivo, human. The note with it: oral dosage form. As for the experimental part:
If 10 mg of the drug is given by the oral route only 2.0 mg is absorbed. If the optimal therapeutic dosage is tailored based on this low absorption, then the therapeutically effective dose without manifestation of significant toxic effects would be an effective accumulation of 2.0 mg of the drug in the plasma. It is reasonable to assume for antifolates that an increase of 50% of drug level in plasma relative to the accepted safe level would lead to disastrous toxic consequences including severe bone marrow depression. Therefore an increase of bioavailability from 20 to 30 percent in this case would effectively increase drug concentration by 50% in the plasma. The 10 percent increase in Bioavailability may well be envisioned by slight pH changes in the gut of patients who may be taking antacids, or medicine to modulate acid secretions, taking other medications or unknown factors. The present invention addresses this very crucial safety issues and provides a means to stabilize drug concentration in plasma to predictable levels by replacing oral dosage form of methotrexate with the sublingual dosage form, the absorption of which is independent of the biochemical pharmacology of human gut.

The conditions of series [6]: oral dosage form; cited from earlier work.

With `CN(Cc1nc2c(N)nc(N)nc2[nH]c1=O)c1ccc(C(=O)N[C@@H](CCC(=O)O)C(=O)O)cc1` [7-hydroxymethotrexate], the “antifolate activity of the oxidation product” value in the series on aldehyde oxidase is “inactive”.
For `Nc1nc(=O)c2c([nH]1)NCC(CNc1ccc(C(=O)N[C@@H](CCC(=O)[O-])C(=O)[O-])cc1)N2C=O.[Ca+2]` (stereo partly shown) [Calcium folinate], the “time to improvement of odynophagia” value in series [1] (15 mg orally four times a day after methotrexate overdose) is ≤ 24 h.
Turning to `C[C@]12CC[C@@H]3c4ccc(O)cc4CC[C@H]3[C@@H]1CC[C@@H]2O` [estradiol], in series [2], the “share of the oral dose needed by the sublingual route to achieve the same bioavailability” value is reported as 20-25%.
`CN(Cc1cnc2nc(N)nc(N)c2n1)c1ccc(C(=O)N[C@@H](CCC(=O)O)C(=O)O)cc1` [methotrexate]: in series [3], the solubility entry was “pH dependent”. Besides, the “percentage of patients who were methotrexate non-responders” value in series [4] amounted to 40%. Also, the drug related toxicity entry in series [4] (some patients) is listed as “elevation of liver enzymes”. The absorption in series [5] stood at 20%. The “toxic effects of the incorrect dose” value in series [1] (60 mg weekly instead of 15 mg weekly, oral tablets, rheumatoid arthritis patient) is “odynophagia, dysphagia and oesophagitis”. The severe unwanted effects result in series [1] (weekly dose taken in error daily or on several days each week) is “neutropenia, hepatotoxicity and bone marrow suppression”. Also, the theoretical bioavailability in series [6] is reported as 20-80%.
